Laboratory results reported in patent publication US7161032B2, “Sulfonamide derivatives, insecticides for agricultural and horticultural use, and usage thereof” (Nihon Nohyaku Co., Ltd., priority 2002, dated 2007).

What was measured:
Assay type in all cases: in vivo
[1] = test system: Smaller Tea Tortrix (Adoxophyes sp.); experiment: Insecticidal effect on smaller tea tortrix (Test Example 3): tea leaves immersed in 50 ppm liquid chemical; settings: smaller tea tortrix (Adoxophyes sp.) larvae, 8 days after inoculation, 25° C., humidity 70%
Procedure, shortened: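 Tea leaves dipped about 30 seconds in 50 ppm compound preparation, air-dried, then infested with larvae and held at 25° C and 70% humidity. Dead and alive counted 8 days after inoculation; triplicate groups of 10 insects.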

[2] = test system: Common Cutworm (Spodoptera litura); experiment: Insecticidal effect on common cutworm (Test Example 2): cabbage leaf piece immersed in 50 ppm liquid chemical; settings: common cutworm (Spodoptera litura) second-instar larvae, 8 days after inoculation, 25° C.
Procedure, shortened: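 Cabbage leaf pieces (cv. Shikidori) dipped ~30 s in formulated compound at 50 ppm and air-dried. Second-instar larvae added, kept at 25° C. Dead and alive counted at 8 days to give % mortality, scored against a criterion scale; three groups of 10 insects.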

[3] = test system: Diamond Back Moth (Plutella xylostella); experiment: Insecticidal effect on diamond back moth (Test Example 1): egg-bearing Chinese cabbage seedling immersed in 50 ppm liquid chemical
Procedure, shortened: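 Seedlings bearing 2-day-old eggs dipped about 30 s in 50 ppm formulated compound, air-dried, held at 25° C. Hatched larvae counted 6 days after immersion; mortality calculated and graded by criterion. Triplicate groups of 10 insects.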

Cc1cc(C(F)(F)C(F)(F)F)ccc1NC(=O)c1cccc(I)c1C(=O)NC(C)(C)CS(=O)(=O)NCCS(C)(=O)=O [1-306]
Insecticidal effect (mortality grade), Test Example 3 [1]: A (Mortality 100%)
Insecticidal effect (mortality grade), Test Example 2 [2]: A (Mortality 100%)
Insecticidal effect (mortality grade), Test Example 1 [3]: A (Mortality 100%)

CCCCNS(=O)(=O)CC(C)NC(=O)c1c(Br)cccc1C(=O)Nc1ccc(C(F)(C(F)(F)F)C(F)(F)F)cc1C (stereo not drawn) [1-217]
Insecticidal effect (mortality grade), Test Example 3 [1]: A (Mortality 100%)
Insecticidal effect (mortality grade), Test Example 2 [2]: A (Mortality 100%)
Insecticidal effect (mortality grade), Test Example 1 [3]: A (Mortality 100%)

Cc1cc(C(F)(C(F)(F)F)C(F)(F)F)ccc1NC(=O)c1cccc(I)c1C(=O)NC(C)(C)CS(=O)(=O)N1CCS(=O)(=O)CC1 [1-60]
Insecticidal effect (mortality grade), Test Example 3 [1]: E (Mortality less than 50%)
Insecticidal effect (mortality grade), Test Example 2 [2]: A (Mortality 100%)
Insecticidal effect (mortality grade), Test Example 1 [3]: A (Mortality 100%)

Cc1cc(C(F)(C(F)(F)F)C(F)(F)F)ccc1NC(=O)c1cccc(I)c1C(=O)NC(C)CS(=O)(=O)NCc1ccc([N+](=O)[O-])cc1 (stereo not drawn) [1-36]
Insecticidal effect (mortality grade), Test Example 3 [1]: A (Mortality 100%)
Insecticidal effect (mortality grade), Test Example 2 [2]: A (Mortality 100%)
Insecticidal effect (mortality grade), Test Example 1 [3]: A (Mortality 100%)

CCNS(=O)(=O)CC(C)NC(=O)c1c(I)cccc1C(=O)Nc1ccc(C(F)(C(F)(F)F)C(F)(F)F)cc1C (stereo not drawn) [1-4, N^2-(2-ethylsulfamoyl-1-methylethyl)-3-iodo-N^1-{2-methyl-4-[1,2,2,2-tetrafluoro-1-(trifluoromethyl)ethyl]phenyl}phthalamide]
Insecticidal effect (mortality grade), Test Example 3 [1]: A (Mortality 100%)
Insecticidal effect (mortality grade), Test Example 2 [2]: A (Mortality 100%)
Insecticidal effect (mortality grade), Test Example 1 [3]: A (Mortality 100%)

CCN(CC)S(=O)(=O)CC(C)NC(=O)c1c(I)cccc1C(=O)Nc1ccc(C(F)(C(F)(F)F)C(F)(F)F)cc1C (stereo not drawn) [1-144]
Insecticidal effect (mortality grade), Test Example 3 [1]: A (Mortality 100%)
Insecticidal effect (mortality grade), Test Example 2 [2]: A (Mortality 100%)
Insecticidal effect (mortality grade), Test Example 1 [3]: A (Mortality 100%)

Cc1cc(C(F)(C(F)(F)F)C(F)(F)F)ccc1NC(=O)c1cccc(I)c1C(=O)NC(C)(C)CS(=O)(=O)N(C)C [1-177]
Insecticidal effect (mortality grade), Test Example 3 [1]: A (Mortality 100%)
Insecticidal effect (mortality grade), Test Example 2 [2]: A (Mortality 100%)
Insecticidal effect (mortality grade), Test Example 1 [3]: A (Mortality 100%)

CCN(CC)S(=O)(=O)CC(C)(C)NC(=O)c1c(Br)cccc1C(=O)Nc1ccc(C(F)(C(F)(F)F)C(F)(F)F)cc1C [1-219]
Insecticidal effect (mortality grade), Test Example 3 [1]: A (Mortality 100%)
Insecticidal effect (mortality grade), Test Example 2 [2]: A (Mortality 100%)
Insecticidal effect (mortality grade), Test Example 1 [3]: A (Mortality 100%)

Cc1cc(C(F)(C(F)(F)F)C(F)(F)F)ccc1NC(=O)c1cccc(I)c1C(=O)NC(C)CS(=O)(=O)NCCS(C)(=O)=O (stereo not drawn) [1-77]
Insecticidal effect (mortality grade), Test Example 3 [1]: A (Mortality 100%)
Insecticidal effect (mortality grade), Test Example 2 [2]: A (Mortality 100%)
Insecticidal effect (mortality grade), Test Example 1 [3]: A (Mortality 100%)

CSc1ccc(NS(=O)(=O)CC(C)NC(=O)c2c(I)cccc2C(=O)Nc2ccc(C(F)(C(F)(F)F)C(F)(F)F)cc2C)cc1 (stereo not drawn) [1-112]
Insecticidal effect (mortality grade), Test Example 3 [1]: E (Mortality less than 50%)
Insecticidal effect (mortality grade), Test Example 2 [2]: E (Mortality less than 50%)
Insecticidal effect (mortality grade), Test Example 1 [3]: A (Mortality 100%)

Cc1cc(C(F)(C(F)(F)F)C(F)(F)F)ccc1NC(=O)c1cccc(Br)c1C(=O)NC(C)CS(=O)(=O)N(C)C (stereo not drawn) [1-213]
Insecticidal effect (mortality grade), Test Example 3 [1]: A (Mortality 100%)
Insecticidal effect (mortality grade), Test Example 2 [2]: A (Mortality 100%)
Insecticidal effect (mortality grade), Test Example 1 [3]: A (Mortality 100%)

CCN(CC)S(=O)(=O)CC(C)NC(=O)c1c(I)cccc1C(=O)Nc1ccc(OC(F)(F)F)cc1C (stereo not drawn) [1-276]
Insecticidal effect (mortality grade), Test Example 3 [1]: E (Mortality less than 50%)
Insecticidal effect (mortality grade), Test Example 2 [2]: E (Mortality less than 50%)
Insecticidal effect (mortality grade), Test Example 1 [3]: A (Mortality 100%)

Cc1cc(C(F)(C(F)(F)F)C(F)(F)F)ccc1NC(=O)c1cccc(I)c1C(=O)NC(C)CS(=O)(=O)NCc1ccccc1Cl (stereo not drawn) [1-24]
Insecticidal effect (mortality grade), Test Example 3 [1]: A (Mortality 100%)
Insecticidal effect (mortality grade), Test Example 2 [2]: A (Mortality 100%)
Insecticidal effect (mortality grade), Test Example 1 [3]: A (Mortality 100%)

COc1ccc(NS(=O)(=O)CC(C)NC(=O)c2c(I)cccc2C(=O)Nc2ccc(C(F)(C(F)(F)F)C(F)(F)F)cc2C)cc1 (stereo not drawn) [1-111]
Insecticidal effect (mortality grade), Test Example 3 [1]: E (Mortality less than 50%)
Insecticidal effect (mortality grade), Test Example 2 [2]: E (Mortality less than 50%)
Insecticidal effect (mortality grade), Test Example 1 [3]: A (Mortality 100%)

Cc1cc(C(F)(C(F)(F)F)C(F)(F)F)ccc1NC(=O)c1cccc(I)c1C(=O)NC(C)CS(=O)(=O)NCc1ccccc1F (stereo not drawn) [1-23]
Insecticidal effect (mortality grade), Test Example 3 [1]: A (Mortality 100%)
Insecticidal effect (mortality grade), Test Example 2 [2]: A (Mortality 100%)
Insecticidal effect (mortality grade), Test Example 1 [3]: A (Mortality 100%)

Cc1cc(C(F)(C(F)(F)F)C(F)(F)F)ccc1NC(=O)c1cccc(I)c1C(=O)NC(C)(C)CS(=O)(=O)N1CCSCC1C (stereo not drawn) [1-61]
Insecticidal effect (mortality grade), Test Example 3 [1]: A (Mortality 100%)
Insecticidal effect (mortality grade), Test Example 2 [2]: A (Mortality 100%)
Insecticidal effect (mortality grade), Test Example 1 [3]: A (Mortality 100%)

Cc1cc(C(F)(C(F)(F)F)C(F)(F)F)ccc1NC(=O)c1cccc(I)c1C(=O)NC(C)(C)CS(=O)(=O)N1CCS(=O)(=O)CC1C (stereo not drawn) [1-63]
Insecticidal effect (mortality grade), Test Example 3 [1]: A (Mortality 100%)
Insecticidal effect (mortality grade), Test Example 2 [2]: A (Mortality 100%)
Insecticidal effect (mortality grade), Test Example 1 [3]: A (Mortality 100%)

Cc1cc(C(F)(C(F)(F)F)C(F)(F)F)ccc1NC(=O)c1cccc(I)c1C(=O)NC(C)CS(=O)(=O)N1CCS(=O)(=O)CC1 (stereo not drawn) [1-57]
Insecticidal effect (mortality grade), Test Example 3 [1]: A (Mortality 100%)
Insecticidal effect (mortality grade), Test Example 2 [2]: A (Mortality 100%)
Insecticidal effect (mortality grade), Test Example 1 [3]: A (Mortality 100%)

Cc1cc(C(F)(C(F)(F)F)C(F)(F)F)ccc1NC(=O)c1cccc(I)c1C(=O)NC(C)CS(=O)(=O)NCc1ccc(C#N)cc1 (stereo not drawn) [1-37]
Insecticidal effect (mortality grade), Test Example 3 [1]: A (Mortality 100%)
Insecticidal effect (mortality grade), Test Example 2 [2]: A (Mortality 100%)
Insecticidal effect (mortality grade), Test Example 1 [3]: A (Mortality 100%)

CNS(=O)(=O)CC(C)NC(=O)c1c(I)cccc1C(=O)Nc1ccc(C(F)(C(F)(F)F)C(F)(F)F)cc1C (stereo not drawn) [1-2]
Insecticidal effect (mortality grade), Test Example 3 [1]: A (Mortality 100%)
Insecticidal effect (mortality grade), Test Example 2 [2]: A (Mortality 100%)
Insecticidal effect (mortality grade), Test Example 1 [3]: A (Mortality 100%)

Cc1cc(C(F)(C(F)(F)F)C(F)(F)F)ccc1NC(=O)c1cccc(I)c1C(=O)NC(C)CS(=O)(=O)NCc1cccc(C#N)c1 (stereo not drawn) [1-31]
Insecticidal effect (mortality grade), Test Example 3 [1]: A (Mortality 100%)
Insecticidal effect (mortality grade), Test Example 2 [2]: A (Mortality 100%)
Insecticidal effect (mortality grade), Test Example 1 [3]: A (Mortality 100%)

Cc1cc(C(F)(C(F)(F)F)C(F)(F)F)ccc1NC(=O)c1cccc(I)c1C(=O)NC(C)CS(=O)(=O)NC(C)C[S+](C)[O-] (stereo not drawn) [1-92]
Insecticidal effect (mortality grade), Test Example 3 [1]: A (Mortality 100%)
Insecticidal effect (mortality grade), Test Example 2 [2]: A (Mortality 100%)
Insecticidal effect (mortality grade), Test Example 1 [3]: A (Mortality 100%)

CCCCNS(=O)(=O)CC(C)(C)NC(=O)c1c(I)cccc1C(=O)Nc1ccc(C(F)(C(F)(F)F)C(F)(F)F)cc1C [1-180]
Insecticidal effect (mortality grade), Test Example 3 [1]: A (Mortality 100%)
Insecticidal effect (mortality grade), Test Example 2 [2]: C (Mortality 89–80%)
Insecticidal effect (mortality grade), Test Example 1 [3]: A (Mortality 100%)

Cc1cc(C(C(F)(F)F)C(F)(F)F)ccc1NC(=O)c1cccc(I)c1C(=O)NC(C)CS(N)(=O)=O (stereo not drawn) [1-342]
Insecticidal effect (mortality grade), Test Example 3 [1]: A (Mortality 100%)
Insecticidal effect (mortality grade), Test Example 2 [2]: A (Mortality 100%)
Insecticidal effect (mortality grade), Test Example 1 [3]: A (Mortality 100%)

Cc1cc(C(F)(C(F)(F)F)C(F)(F)F)ccc1NC(=O)c1cccc(I)c1C(=O)NC(C)(C)CS(=O)(=O)N1CC[S+]([O-])CC1 [1-59]
Insecticidal effect (mortality grade), Test Example 3 [1]: E (Mortality less than 50%)
Insecticidal effect (mortality grade), Test Example 2 [2]: A (Mortality 100%)
Insecticidal effect (mortality grade), Test Example 1 [3]: A (Mortality 100%)

Cc1cc(C(F)(C(F)(F)F)C(F)(F)F)ccc1NC(=O)c1cccc(I)c1C(=O)NC(C)CS(=O)(=O)NC(C)(C)Cc1ccccc1 (stereo not drawn) [1-48]
Insecticidal effect (mortality grade), Test Example 3 [1]: A (Mortality 100%)
Insecticidal effect (mortality grade), Test Example 2 [2]: C (Mortality 89–80%)
Insecticidal effect (mortality grade), Test Example 1 [3]: A (Mortality 100%)
